Measurements taken from patent US12473583B2, “Use of guar gum, fluorescence-enhanced gold nanocluster, method for detecting alpha-glucosidase, and method for screening alpha-glucosidase inhibitor” (priority 2022, dated 2025).

Target: α-glucosidase (α-Glu)
Experiment: Screening of α-Glu inhibitors by fluorescence detection with guar gum-gold nanocluster-Fe3+ mixed dispersion (AAG substrate)
Format: biochemical
Details: read from calibration curve of inhibitory efficiency vs concentration; third incubation 37° C. for 40 min, PBS pH=7.0, AAG substrate; fluorescence at 610 nm; read-out: IC50 (concentration of the inhibitor required to inhibit 50% α-Glu activity)
From the text: The present disclosure further provides a method for screening an α-Glu inhibitor, including the following steps: • providing a fluorescence-enhanced gold nanocluster-Fe^3+ mixed dispersion, where a fluorescence-enhanced gold nanocluster in the fluorescence-enhanced gold nanocluster-Fe^3+ mixed dispersion is the fluorescence-enhanced gold nanocluster in the above technical solution; • mixing an α-Glu inhibitor solution to be tested, an α-Glu solution, an AAG solution, and a PBS, and conducting third incubation to obtain a third incubation solution; • mixing the third incubation solution with the fluorescence-enhanced gold nanocluster-Fe^3+ mixed dispersion, and conducting fourth incubation to obtain a fourth incubation solution; and • subjecting the fourth incubation solution to fluorescence detection, and plotting a calibration curve of the α-Glu inhibitor to be tested according to a fluorescence emission intensity obtained by the fluorescence detection; according to the calibration curve of the α-Glu inhibitor to be tested, obtaining an IC50 of the α-Glu inhibitor to be tested to screen the α-Glu inhibitor. […]
In the present disclosure, the third incubation solution is mixed with the fluorescence-enhanced gold nanocluster-Fe^3+ mixed dispersion, and the fourth incubation is conducted to obtain the fourth incubation solution. […]

With `COc1ccc([C@@H]2CC(=O)c3c(O)cc(O[C@@H]4O[C@H](CO[C@@H]5O[C@@H](C)[C@H](O)[C@@H](O)[C@H]5O)[C@@H](O)[C@H](O)[C@H]4O)cc3O2)cc1O` [hesperidin] the IC50 was 101 µM.
